Molecules are shown by their SMILES. Activity calls are given as the source filed them. The calls are words filed in the database; no cut-off is given here.

Data set [1] addresses T1, Cholinesterase (Equus caballus, UniProt P81908).
Description: Inhibition of equine serum BChE using butyrylthiocholine iodide as substrate preincubated for 10 mins followed by substrate addition by Ellman's method
Data set [2] concerns the target T2, Acetylcholinesterase (Homo sapiens, UniProt P22303).
Description: Inhibition of human erythrocyte AChE using acetylthiocholine iodide as substrate preincubated for 10 mins followed by substrate addition by Ellman's method
Data set [3] addresses T3, Liver carboxylesterase (Sus scrofa, UniProt Q29550).
T3 sequence (Q29550 whole entry): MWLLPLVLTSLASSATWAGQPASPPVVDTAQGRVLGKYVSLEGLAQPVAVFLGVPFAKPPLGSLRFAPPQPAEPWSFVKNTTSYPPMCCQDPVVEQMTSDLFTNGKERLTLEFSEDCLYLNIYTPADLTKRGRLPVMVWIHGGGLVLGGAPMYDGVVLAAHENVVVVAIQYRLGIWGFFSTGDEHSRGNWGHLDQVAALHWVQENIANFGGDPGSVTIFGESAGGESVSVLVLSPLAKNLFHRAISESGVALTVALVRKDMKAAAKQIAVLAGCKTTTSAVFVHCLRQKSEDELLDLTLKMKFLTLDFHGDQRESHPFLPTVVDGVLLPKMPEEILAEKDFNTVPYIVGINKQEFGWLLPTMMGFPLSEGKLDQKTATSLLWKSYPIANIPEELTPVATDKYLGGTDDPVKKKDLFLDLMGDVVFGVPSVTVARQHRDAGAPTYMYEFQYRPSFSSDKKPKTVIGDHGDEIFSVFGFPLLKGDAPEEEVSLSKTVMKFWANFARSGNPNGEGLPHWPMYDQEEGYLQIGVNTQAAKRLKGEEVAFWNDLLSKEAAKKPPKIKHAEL
The experiment in a line: in vitro. As to conditions: pig, probe 4-nitrophenol acetate.
Description: Inhibition of pig liver carboxylesterase at 20 uM using 4-nitrophenol acetate as substrate by spectrophotometric analysis

Data set [4] addresses T3, Liver carboxylesterase.
Description: Inhibition of pig liver carboxylesterase using 4-nitrophenol acetate as substrate by spectrophotometric analysis
In data set [5] the target is T2, Acetylcholinesterase. This is another data set of the same source.
Description: Competitive inhibition of human serum AChE using acetylthiocholine iodide as substrate preincubated for 10 mins followed by Lineweaver-Burk double reciprocal kinetic plot analysis
The target in data set [6] is Cholinesterase (Equus caballus) (UniProt P81908). The experiment in a line: Non-competitive inhibition of equine serum BChE using butyrylthiocholine iodide as substrate preincubated for 10 mins followed by substrate addition by Lineweaver-Burk double reciprocal kinetic plot analysis.
Data set [7] addresses T2, Acetylcholinesterase. Kind of data set: Non-competitive inhibition of human […] AChE using acetylthiocholine iodide as substrate preincubated for 10 mins followed by substrate addition by Lineweaver-Burk double reciprocal kinetic plot analysis.
Data set [8] concerns the target T1, Cholinesterase. This is another data set of the same source.
Description: Competitive inhibition of equine serum BChE using butyrylthiocholine iodide as substrate preincubated for 10 mins followed by substrate addition by Lineweaver-Burk double reciprocal kinetic plot analysis
The target in data set [9] is T2, Acetylcholinesterase. The experiment in a line: Inhibition of human erythrocyte AChE at 20 uM using acetylthiocholine iodide as substrate preincubated for 10 mins followed by substrate addition Ellman's method.
Data set [10] addresses Cholinesterase (Equus caballus) (UniProt P81908). The experiment in a line: Inhibition of equine serum BChE at 20 uM using butyrylthiocholine iodide as substrate preincubated for 10 mins followed by substrate addition by Ellman's method. In general terms: In Ellman's method for cholinesterases, released thiocholine reacts with DTNB.

T1 sequence (P81908 whole entry): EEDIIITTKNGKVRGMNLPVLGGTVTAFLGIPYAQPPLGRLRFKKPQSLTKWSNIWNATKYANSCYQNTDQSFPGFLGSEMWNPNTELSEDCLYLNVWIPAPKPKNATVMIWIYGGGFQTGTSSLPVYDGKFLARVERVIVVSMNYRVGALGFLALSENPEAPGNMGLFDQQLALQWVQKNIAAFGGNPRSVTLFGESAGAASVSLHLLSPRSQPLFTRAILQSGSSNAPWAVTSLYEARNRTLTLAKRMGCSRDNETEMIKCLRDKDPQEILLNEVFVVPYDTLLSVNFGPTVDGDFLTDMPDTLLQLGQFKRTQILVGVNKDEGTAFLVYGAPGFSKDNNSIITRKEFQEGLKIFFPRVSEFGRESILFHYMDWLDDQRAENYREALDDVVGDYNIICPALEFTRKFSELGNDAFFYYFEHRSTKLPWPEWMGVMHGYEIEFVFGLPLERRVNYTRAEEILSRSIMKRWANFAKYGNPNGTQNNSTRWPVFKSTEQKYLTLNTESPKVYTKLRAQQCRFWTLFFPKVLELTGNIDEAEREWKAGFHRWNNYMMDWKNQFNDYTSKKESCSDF
Cholinesterase (Equus caballus), sequence (P81908 whole entry): as above
T2 sequence (P22303 whole entry): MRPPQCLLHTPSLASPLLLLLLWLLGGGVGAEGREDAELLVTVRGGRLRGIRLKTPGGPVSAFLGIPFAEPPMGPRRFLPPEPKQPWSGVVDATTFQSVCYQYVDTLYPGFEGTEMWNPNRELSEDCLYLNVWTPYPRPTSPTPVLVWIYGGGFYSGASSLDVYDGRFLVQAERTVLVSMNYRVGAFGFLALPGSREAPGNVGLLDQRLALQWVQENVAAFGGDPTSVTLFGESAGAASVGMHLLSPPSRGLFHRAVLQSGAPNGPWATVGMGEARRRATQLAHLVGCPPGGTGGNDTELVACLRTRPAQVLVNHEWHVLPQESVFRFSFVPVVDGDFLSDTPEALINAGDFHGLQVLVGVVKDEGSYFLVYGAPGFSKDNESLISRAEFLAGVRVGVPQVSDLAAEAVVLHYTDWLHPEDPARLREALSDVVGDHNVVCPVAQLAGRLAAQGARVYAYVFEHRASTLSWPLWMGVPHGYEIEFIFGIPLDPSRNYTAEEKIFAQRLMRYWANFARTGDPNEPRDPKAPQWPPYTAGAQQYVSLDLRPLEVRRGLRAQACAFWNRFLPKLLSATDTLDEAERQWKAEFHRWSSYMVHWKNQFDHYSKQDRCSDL

Turning to `C[n+]1c2ccccc2c(N)c2ccccc21`, the values for the IC50 on Cholinesterase [1] and at Acetylcholinesterase [2] were 4.83 µM and 39.5 µM, respectively.

With `C[n+]1c2ccccc2c(-c2ccc(N)cc2)c2ccccc21`, at Liver carboxylesterase [3], 20 µM produced 18.6% inhibition. Further, the IC50 – broadly, the midpoint of a concentration-inhibition curve – on Liver carboxylesterase [4] is greater than 20 µM; against Cholinesterase [1], 39.1 µM; at Acetylcholinesterase [2] it was 7.62 µM. In addition, the results for the Ki at Acetylcholinesterase [5] and on Cholinesterase [8] were 2.66 µM and 19 µM, respectively. For the same compound, the alphaKi was found to be 55.4 µM in data set [6] and 8.95 µM at Acetylcholinesterase [7].

Take `Cc1cc(-c2c3ccccc3[n+](C)c3ccccc23)cc(C)c1O`: the IC50 on Cholinesterase [1] stood at 61.8 µM; against Acetylcholinesterase [2], 49.8 µM.

In the case of `CCN(CC)c1ccc(-c2c3ccccc3[n+](C)c3ccccc23)cc1`, the figures for the Ki on Acetylcholinesterase [5] and at Cholinesterase [8] were 13.2 µM and 0.94 µM, respectively. The IC50 against Cholinesterase [1] worked out at 3.35 µM; against Acetylcholinesterase [2], 25.2 µM. The alphaKi was found to be 4.22 µM in data set [6] and 28 µM at Acetylcholinesterase [7].

Regarding `C[n+]1c2ccccc2c(-c2c(O)ccc3ccccc23)c2ccccc21`, at Liver carboxylesterase [3], the inhibition (as a rule, the relative decrease from the control value, in per cent) at 20 µM was determined as 8.9%. Moreover, the IC50 against Liver carboxylesterase [4] is greater than 20 µM; on Cholinesterase [1], 50.8 µM; on Acetylcholinesterase [2], greater than 20 µM. The inhibition against Acetylcholinesterase [9] turned out to be 7.3%.

In the case of `O=[N+]([O-])c1ccc(OP(=O)(O)Oc2ccc([N+](=O)[O-])cc2)cc1`, the inhibition result (in data set [10]; on Acetylcholinesterase [9]) was “inactive” each time.

Regarding `CN1c2ccccc2C(n2cnc([N+](=O)[O-])n2)c2ccccc21`, the inhibition at 20 µM against Liver carboxylesterase [3] stood at 10.6%. Also, the half-maximal inhibitory concentration (IC50) is greater than 20 µM against Liver carboxylesterase [4], 1.17 µM on Cholinesterase [1] and 16.7 µM against Acetylcholinesterase [2].

With `C[n+]1c2ccccc2c(-c2ccccc2)c2ccccc21`, the inhibition at 20 µM on Liver carboxylesterase [3] was 22.6%. In addition, the IC50 is greater than 20 µM against Liver carboxylesterase [4], 51.9 µM against Cholinesterase [1] and 61.3 µM against Acetylcholinesterase [2].

Turning to `Cc1ccc(-c2c3ccccc3[n+](C)c3ccccc23)cc1`, the inhibition at 20 µM against Liver carboxylesterase [3] is 16.3%. In addition, the IC50 against Liver carboxylesterase [4] is greater than 20 µM; against Cholinesterase [1] it was 40.7 µM; at Acetylcholinesterase [2] it was 41.5 µM.

With `COc1ccc(-c2c3ccccc3[n+](C)c3ccccc23)cc1`, at Liver carboxylesterase [3], the inhibition at 20 µM worked out at 7.8%. For the same compound, the IC50 on Liver carboxylesterase [4] is greater than 20 µM; at Cholinesterase [1] it was 58.5 µM; against Acetylcholinesterase [2], 13.7 µM.

`C[n+]1c2ccccc2c(-c2cc(C(C)(C)C)cc(C(C)(C)C)c2O)c2ccccc21` displayed an inhibition at 20 µM at Liver carboxylesterase [3] of 31.2%. Further, the IC50 is greater than 20 µM against Liver carboxylesterase [4], 2.74 µM at Cholinesterase [1] and greater than 20 µM against Acetylcholinesterase [2]. In data set [6], this compound yielded an alphaKi of 4.75 µM. Also, at Acetylcholinesterase [9], the inhibition stood at 16.7%. In addition, the affinity on Cholinesterase [8], expressed as Ki, was 1.46 µM.

For `C[n+]1c2ccccc2c(-c2ccc(NC(=O)C(F)(F)F)cc2)c2ccccc21`, at Liver carboxylesterase [3], 20 µM produced 7.2% inhibition. In addition, the results for the IC50 at Liver carboxylesterase [4], on Cholinesterase [1] and at Acetylcholinesterase [2] were greater than 20 µM, greater than 20 µM and 36.5 µM, respectively. Further, the inhibition in [10] was 7.7%.

On Liver carboxylesterase [3], `C[n+]1c2ccccc2c(-c2ccc(F)cc2)c2ccccc21` showed an inhibition at 20 µM of 5.9%. Also, the IC50 was greater than 20 µM against Liver carboxylesterase [4], greater than 20 µM on Cholinesterase [1] and 32.3 µM against Acetylcholinesterase [2]. In addition, the inhibition in data set [10] worked out at 8.2%.

In the case of `CC(=O)Nc1ccc(-c2c3ccccc3[n+](C)c3ccccc23)cc1`, the IC50 came out at 35.1 µM at Cholinesterase [1] and 54.3 µM at Acetylcholinesterase [2].

In turn, `CN1c2ccccc2C(N2CCOCC2)c2ccccc21` showed an inhibition at 20 µM on Liver carboxylesterase [3] of 16.4%. Further, the IC50 on Liver carboxylesterase [4] was greater than 20 µM; on Cholinesterase [1] it was 0.46 µM; on Acetylcholinesterase [2] it was 12.3 µM. Further, the values for the Ki on Acetylcholinesterase [5] and on Cholinesterase [8] were 4.01 µM and 0.41 µM, respectively. For the same compound, the figures for the alphaKi (in data set [6]; at Acetylcholinesterase [7]) were 1.17 µM and 19.6 µM, respectively.

Turning to `CN1c2ccccc2C(n2nnc3ccccc32)c2ccccc21`, the inhibition at 20 µM against Liver carboxylesterase [3] turned out to be 15.3%. Further, the IC50 at Liver carboxylesterase [4] was greater than 20 µM; on Cholinesterase [1], 1.08 µM; against Acetylcholinesterase [2], 12.4 µM. The Ki (usually a measure of affinity in units of concentration, obtained from inhibition or displacement) worked out at 6.43 µM on Acetylcholinesterase [5] and 0.49 µM on Cholinesterase [8]. Moreover, the results for the alphaKi (in data set [6]; at Acetylcholinesterase [7]) were 2.13 µM and 17.9 µM, respectively.

Take `CC(=O)Nc1ccc(C2c3ccccc3N(C)c3ccccc32)cc1`: at 20 µM the inhibition on Liver carboxylesterase [3] was 7.2%. The IC50 on Liver carboxylesterase [4] and against Cholinesterase [1] was greater than 20 µM each time. The same compound showed an inhibition in [10] of 10.8%. For the same compound, the inhibition result on Acetylcholinesterase [9] was “inactive”.

For `COc1ccc(C2c3ccccc3N(C)c3ccccc32)cc1`, the values for the inhibition (in data set [10]; against Acetylcholinesterase [9]) were 11.6% and 9.3%, respectively. For the same compound, the IC50 at Cholinesterase [1] and against Acetylcholinesterase [2] was greater than 20 µM in each case.

In turn, `CN1c2ccccc2C(N2CCSCC2)c2ccccc21` showed an inhibition at 20 µM against Liver carboxylesterase [3] of 5%. Also, the figures for the IC50 against Liver carboxylesterase [4], against Cholinesterase [1] and against Acetylcholinesterase [2] were greater than 20 µM, 0.84 µM and 11.8 µM, respectively. In addition, the results for the Ki on Acetylcholinesterase [5] and on Cholinesterase [8] were 3.75 µM and 0.35 µM, respectively. The alphaKi in [6] is 1.31 µM.

On Liver carboxylesterase [3], `CN1c2ccccc2C(c2cccs2)c2ccccc21` yielded an inhibition at 20 µM of 11.1%. The IC50 against Liver carboxylesterase [4] and at Cholinesterase [1] was greater than 20 µM each time. Moreover, in data set [10], the inhibition turned out to be 12.3%. Besides, on Acetylcholinesterase [9], the inhibition entry is “inactive”.

`CN1c2ccccc2C(c2cc(C(C)(C)C)c(O)c(C(C)(C)C)c2)c2ccccc21`: at Liver carboxylesterase [3], the inhibition at 20 µM amounted to 23.6%. For the same compound, the IC50 at Liver carboxylesterase [4] and on Cholinesterase [1] was greater than 20 µM each time. In data set [10], the inhibition turned out to be 10.4%. Also, at Acetylcholinesterase [9], the inhibition entry was “inactive”.

As for `CN1c2ccccc2C(c2ccccc2)c2ccccc21`, the IC50 against Cholinesterase [1] is 62.1 µM. At Acetylcholinesterase [9], the inhibition result is “inactive”.

For `CN1c2ccccc2C(n2c3ccccc3c3ccccc32)c2ccccc21`, the 50% inhibitory concentration (IC50) against Cholinesterase [1] was 13 µM; on Acetylcholinesterase [2], greater than 20 µM. This compound also returned an inhibition against Acetylcholinesterase [9] of 5.6%.

The compound `CN1c2ccccc2C(c2cc(C(C)(C)C)cc(C(C)(C)C)c2O)c2ccccc21` had an inhibition in [10] of 13.4%. Further, on Cholinesterase [1], the IC50 is greater than 20 µM. Also, on Acetylcholinesterase [9], the inhibition result is “inactive”.

`CN1c2ccccc2C(c2ccc(NC(=O)C(F)(F)F)cc2)c2ccccc21`: the inhibition in data set [10] turned out to be 7.1%. Moreover, at Cholinesterase [1], the IC50 was greater than 20 µM. For the same compound, the inhibition entry at Acetylcholinesterase [9] is “inactive”.

`CN1c2ccccc2C(n2cncn2)c2ccccc21` displayed an inhibition at 20 µM against Liver carboxylesterase [3] of 5.4%. Moreover, the IC50 is greater than 20 µM at Liver carboxylesterase [4], 0.81 µM on Cholinesterase [1] and 18.8 µM on Acetylcholinesterase [2]. The Ki at Acetylcholinesterase [5] turned out to be 3.34 µM; at Cholinesterase [8] it was 0.16 µM. In data set [6], this compound gave an alphaKi of 0.72 µM.

Turning to `CN1c2ccccc2C(c2ccc(F)cc2)c2ccccc21`, in data set [10], the inhibition was found to be 11.1%. Moreover, the IC50 on Cholinesterase [1] is greater than 20 µM. The inhibition result on Acetylcholinesterase [9] is “inactive”.

For the compound `Cc1ccc(C2c3ccccc3N(C)c3ccccc32)cc1`, the figures for the inhibition (in data set [10]; on Acetylcholinesterase [9]) were 10.6% and 5.1%, respectively. In addition, the IC50 against Cholinesterase [1] and against Acetylcholinesterase [2] was greater than 20 µM each time.

Regarding `CCCCNc1c2ccccc2[n+](C)c2ccccc12`, the IC50 is 15.7 µM at Cholinesterase [1] and greater than 20 µM against Acetylcholinesterase [2]. The compound further yielded an inhibition against Acetylcholinesterase [9] of 16.8%.

For `Cc1cc(-c2c3ccccc3[n+](C)c3ccccc23)cc(C)c1C`, the inhibition in data set [10] turned out to be 14.2%. Further, the results for the IC50 on Cholinesterase [1] and against Acetylcholinesterase [2] were greater than 20 µM and 60.1 µM, respectively.

`C[n+]1c2ccccc2c(-c2cccs2)c2ccccc21` returned an inhibition at 20 µM at Liver carboxylesterase [3] of 6.1%. In addition, the results for the IC50 against Liver carboxylesterase [4], against Cholinesterase [1] and against Acetylcholinesterase [2] were greater than 20 µM, 58.3 µM and 40.9 µM, respectively.

With `CN1c2ccccc2C(c2ccc(N)cc2)c2ccccc21`, at Cholinesterase [1], half-maximal inhibition (IC50) was put at 66.5 µM. For the same compound, the inhibition entry on Acetylcholinesterase [9] was “inactive”.

These data come from ChEMBL document CHEMBL4043268 (Bioorg Med Chem, 2017).
